Experimental data reported in patent publication US20160039852A1, “THERAPEUTIC USES OF BISPHOSPHONATES” (THE UNIVERSITY OF SHEFFIELD, priority 2013, published 2016).
Entries after “also recorded” stand apart in the source; their conditions may differ.

What was measured:
Format in all cases: cell-based
[1] = tested on: human mesenchymal stem cells (hMSC); test: Immunostaining of γH2AX DNA damage foci (double stranded breaks) in hMSC
Method: DNA damage was induced by exposing hMSC to ^137Cs Gamma source. Cells were washed with PBS and fixed with 4% Para-formaldehyde for […]. Cells were then washed with PBS permeabilized with 0.5% Triton-X (Sigma, UK) for […] and blocked with 5% normal goat serum (DAKO, Glostrup, Denmark) in PBS for 1 hr. This was followed by incubation with primary antibody, anti-phospho histone H2AX (Ser139) (Millipore, Massachusetts, USA) used at 1:800 in 5% normal goat serum, overnight at 4° C. Cells were then washed in PBS and incubated in secondary Anti mouse IgG Fluorescein Isothiocyanate (FITC) conjugated (Insight Biotechnology, Santa Cruz, USA) at 1:200 in PBS for 1 hour at room temperature. The cover-slips were mounted on slides with mounting media (VectaShield) containing 4',6-diamidino-2-phenylindole (DAPI) to stain the nuclei. […] Cells were viewed using in an Inverted Zeiss LSM 510 NLO microscope equipped with Argon (Ar) laser (488 nm) 30 mW to image the fluorescent marker FITC and UV lamp to image DAPI stained nuclei. Five to seven fields consisting of 25 cells in total were randomly selected from a tile scan (20×) and individual cells viewed at 63× were then scored for γH2AX DNA damage foci using ImageJ 1.45 software (http://rsbweb.nih.gov/ij/). One of the factors affecting cellular lifespan is accumulation of DNA damage.

[2] = tested on: murine and human cancer lines (PC3, 178-2 BMA, MDA-MB231, 5TGM1, 5T33); test: γH2AX foci in cancer lines following irradiation; conditions: irradiation (1Gy), Zol, 0, 4, 12, 24 and 48 h post irradiation
Method: (C-H) Number of γH2AX foci enumerated in (C) hMSC, (D) PC3, (E) 178-2 BMA, (F) MDA-MB231,
(G) 5TGM1 and (H) 5T33 lines following irradiation (1Gy) in the presence or absence of Zol ([…]) and assessed at 0, 4, 12, 24 and 48 h post irradiation (n=3).
Human prostate cancer cell line PC3 cells were maintained in DMEM with Glutamax (Gibco) containing 10% FBS (Sigma), 1% penicillin (100units/ml)/streptomycin (100 μg/ml) (Sigma). Mouse prostate cancer cell line 178-2 BMA was cultured as described above with the addition of 0.1 mM 4-(2-hydroxyethyl)-1-piperazineethanesulfonic acid (Life Technologies, Gaithersburg, USA) and 0.01 mM sodium pyruvate (PAA Laboratories). Human breast cancer cell line MDA-MB-231 was cultured in RPMI 1640 with Glutamax supplemented with 10% FBS (Sigma), 0.01 mM sodium pyruvate (PAA laboratories) and penicillin (1 units/ml) and streptomycin (1 μg/ml) (Sigma). […]
DNA damage was induced by exposing hMSC to ^137Cs Gamma source. […] Five to seven fields consisting of 25 cells in total were randomly selected from a tile scan (20×) and individual cells viewed at 63× were then scored for γH2AX DNA damage foci using ImageJ 1.45 software (http://rsbweb.nih.gov/ij/).

[3] = tested on: normal human dermal fibroblasts; test: Human dermal fibroblast growth, cumulative population doublings
Source text: Cultures (n=3) grown in PBS senesced after 17-21 population doublings (PDs) (square symbols) whereas cultures grown in presence of Zol were still proliferating after 27-34 PDs (triangle symbols).

[4] = tested on: murine multiple myeloma line, 5TGM1; test: γH2AX DNA damage foci in 5TGM1 multiple myeloma line after irradiation; conditions: irradiated in presence versus absence of Zol, 4 h after irradiation, n=3

In the case of `O=P(O)(O)C(O)(Cn1ccnc1)P(=O)(O)O` [Zoledronate], the “DNA repair (γH2AX DNA damage foci), FIG. 9” value ([1]; 1 μM, 4 hours after irradiation, Compound C compared with Zol) is reported as “significant decrease”, the “number of γH2AX DNA damage foci after irradiation” value ([1]; 1Gy irradiation, compound at 1 μM, foci at 4 h (Zol also 12, 24 h) versus PBS, listed as Zol) is reported as “significant decrease; also recorded: significant reduction” and the “number of γH2AX DNA damage foci after irradiation” value ([1]; 3 and 5Gy irradiation (data not shown)) is reported as “significant decrease”. The “number of γH2AX DNA damage foci, dose response” value ([1]; increasing dosing with Zol) was “reduced number of DNA damage foci”, the “incidence of DNA damage foci with passage” value ([1]; passage 3 (early) and p10 (late), no irradiation, listed as Zol) was “significantly higher in untreated hMSC; also recorded: reduced” and the “DNA repair capacity (γH2AX foci)” value [2] was “does not enhance the DNA repair capacity”. For the same compound, the “lifespan of normal human dermal fibroblasts” value [3] was “extends lifespan”, the “population doublings after which cultures were still proliferating” value ([3]; human dermal fibroblasts in presence of Zol, PBS cultures senesced after 17-21 PDs, n=3) was 27-34 PDs and the “number of γH2AX DNA damage foci” value [4] was “No significant difference”.
